EC50 data for 10 compounds are collected here from patent EP2666766A1, “Novel E,E-diene compounds and their use as medicaments and cosmetics” (Dr. August Wolff GmbH & Co. KG Arzneimittel, priority 2012, dated 2013).

The subject of this experiment is Arachidonoylethanolamide Transport (AEAT). Nature of the experiment: Cellular uptake of [3H]-AEA (inhibition of AEA transport). As to conditions: Homo sapiens, U-937, 0.25 h; U937 cells; 100 nM AEA, 15 min, 37°C. The class given is cell-based. The procedure: C. Cellular uptake of [^3H]-AEA
Human lymphoma U937 cells were grown in RPMI 1640 medium (Invitrogen, Basel, Switzerland) supplemented with 10% fetal bovine serum, […] fungizone (amphotericin B), 100 units/ml penicillin, 100 µg/ml streptomycin, and 2 mM L-glutamine (all from Invitrogen) and selected for the cellular AEA uptake assay. 2.5 x 10^6 cells were collected and suspended in 250 µL of RPMI 1640 medium (Invitrogen, Basel, Switzerland) at 37°C using glass silanized vials. Cells were pre-incubated 15 min at 37°C in presence of test compounds in a concentration range of 10^-11 - 10^-5 M or in presence of the same amount (5 µl) of vehicle control (DMSO). Then a mixture of 0.5 nM [^3H]-AEA (60 Ci/mmol) (American Radiolabeled Chemicals, Inc., San Louis, MO, US) and 99.5 nM of nonradioactive AEA (Tocris Cookson Ltd., Bristol, UK) resulting in a final concentration of 100 nM AEA was added and samples were incubated at 37°C for another 15 minutes. The reaction was stopped by rapid filtration over UniFilter®-96 GF/C (Perkin Elmer, Boston MA, US) pre-soaked with PBS 0.25 % BSA (w/v). Cells were washed three times with ice-cold PBS buffer containing 1% fatty acid free BSA (137 mM NaCl, 2.7 mM KCl, 10 mM Na2HPO4, 1.76 mM KH2PO4, 1% BSA fatty acid free, pH 7.4), dried and 40 µL MicroScint 20 scintillation cocktail (Perkin Elmer, Waltham, MA, US) was added. Radioactivity was measured using a Perkin Elmer 1450 Microbeta TRILUX liquid scintillation counter. Results were expressed as % of AEA uptake versus cells treated with solvent and the EC50 and IC50 values were calculated from the sigmoidal curves, which were generated using the GraphPad Prism 5.0 (GraphPad Software, San Diego, CA, US). Table 2: Inhibition of Arachidonoylethanolamide Transport (AEAT) (Determination as Described in Biological Assays C)

SMILES strings stand for the structures.

Turning to `CCCCOCC/C=C/C=C/CNC(=O)OCc1cc(C(N)=O)no1` [Example 18], the EC50 was 9 nM.

Take `CCCCOCC/C=C/C=C/CN(C)C(=O)OCc1cc(C(=O)NC)no1` [Example 16]: the half-maximal effective concentration (EC50) amounted to 7 nM.

`CCCCOCC/C=C/C=C/CNC(=O)OCc1cc(C(=O)N(C)C)no1` [Example 12]: the concentration for a half-maximal effect (EC50) was 6 nM.

`CCCCOCC/C=C/C=C/CN(C)C(=O)OCc1cc(C(=O)N(C)C)no1` [Example 17] came in with a concentration for a half-maximal effect (EC50) of 81 nM.

Consider `CCCCOCC/C=C/C=C/CNC(=O)OCc1cc(C(=O)OCC)no1` [Example 9], for which it took 3 nM to reach a half-maximal effect (EC50).

In the case of `CCCCOCC/C=C/C=C/CN(C)C(=O)OCc1cc(C(=O)OCC)no1` [Example 14], the half-maximal effective concentration (EC50) turned out to be 286 nM.

For `CCCCOCC/C=C/C=C/CN(C)C(=O)OCc1cc(C(N)=O)no1` [Example 15], the midpoint of the response, the EC50, lay at 70 nM.

For the compound `CCCCCOC/C=C/C=C/CNC(=O)OCc1ccncc1` [Example 1], the EC50 amounted to 147 nM.

The compound `CCCCCOC/C=C/C=C/CNC(=O)NCCc1ccc(O)c(O)c1` [Example 3] displayed an EC50 of 6 nM.

As for `CCCCOCC/C=C/C=C/CNC(=O)OCc1cc(C(=O)NC)no1` [Example 13], the EC50 is 0.573 nM.

The term EC50 denotes the concentration at which the effect is half-maximal. Low readings indicate higher potency in that assay, high ones lower potency in that assay.
